Assays:
In vivo retinal toxicity = conditions: FTO inhibition
Wild type C57BL/6J mice [1] = test: VEGFA ELISA of RPE-choroid after laser injury; type: in vivo, mouse; conditions: FTOi i.p. plus 25 ng intravitreous, day 3 after laser injury
Experimental: Laser photocoagulation (532 nm, 180 mW, 100 ms, 75 μm) (OcuLight GL; IRIDEX Corp., Mountain View, CA, USA) was performed bilaterally (volume studies: 4 spots per eye; RNA analyses: 10 spots per eye) in 6- to 8-week-old mice on day 0 to induce CNV as previously described 1-3. For drug treatment, the mice pretreated with FTO inhibitor (FB23-2, SML2694, Sigma) or vehicle (DMSO) through intraperitoneal injection (i.p, 2 mg/kg). Then, the mice were subjected to laser photocoagulation followed by intravitreous injection of the FTO inhibitor (25 ng/0.5 μl per eye) or vehicle. At day 3 after laser injury, the mice were administered the FTO inhibitor (2 mg/kg) or vehicle via intraperitoneal injection. At day 7, the eyes were collected for fluorescein labeled-isolectin B4 and F4/80 staining and for neovascular volume quantification.
The RPE-choroid complex was isolated from mouse eyes on day 3 after laser injury and treatment with FTO inhibitor or vehicle. […] The lysate was centrifuged at 20,000×g for 15 minutes at 4° C., and total protein in the lysates was quantified using the Thermo Scientific™ Pierce™ BCA™ Protein Assay (Fisher Scientific, PI23225, USA). VEGFA protein levels in the supernatants were measured by VEGF DuoSet ELISA (R&D Systems, DY493, USA), following the manufacturer's instructions. […]

Wild type C57BL/6J mice [2] = test: LPS model of septic shock, survival; type: in vivo, mouse; conditions: FTOi 20 mg/kg i.p. 16 hours before, 10 mg/kg LPS challenge; log-rank p<0.05 vs vehicle
Experimental: To induced septic shock model, male or female C57BL/6 mice (6 to 10 weeks old) were primed with 10 mg/kg poly(I:C) via intraperitoneal injection. 6 hours later, primed mice were injected with 10 mg/kg LPS and monitored three time daily for a total 5 days. For FTO inhibitor treatment, Wild type C57BL/6J mice were pretreated with 20 mg/kg FB23-2 for 16 hours before sepsis induction. Next day, 20 mg/kg FB23-2 together with 10 mg/kg poly(I:C) were intraperitoneally injected, following with LPS challenge at 6 hours after poly(I:C) priming.

Human THP-1 cells = test: VEGFA release in human THP-1 cells (ELISA); type: cell-based; conditions: indicated dosage of FTOi, 24 hours or 48 hours; supernatant ELISA
Experimental: (§1) Primary WT or mutant mouse bone marrow derived macrophages (BMDMs) were isolated as previously described (4). BMDMs were cultured in IMDM (Gibco) basal medium containing 10% fetal bovine serum (FBS), 30% L929 supernatants, nonessential amino acids, sodium pyruvate, 2-mercaptoethanol, and antibiotics. THP-1 cells were cultured in RPMI 1640 medium with 10% FBS and antibiotics. Human RPE cells were isolated as previously described and cultured in DMEM medium with 10% FBS and antibiotics. All cells were maintained at 37° C. in a 5% CO2 environment.
The RPE-choroid complex was isolated from mouse eyes on day 3 after laser injury and treatment with FTO inhibitor or vehicle. Eye tissues were lysed by sonication with immunoprecipitation assay (RIPA) buffer (Sigma-Aldrich, R0278, USA) containing protease inhibitor (Sigma-Aldrich, 11836170001, USA), on ice for 15 minutes. The lysate was centrifuged at 20,000×g for 15 minutes at 4° C., and total protein in the lysates was quantified using the Thermo Scientific™ Pierce™ BCA™ Protein Assay (Fisher Scientific, PI23225, USA). VEGFA protein levels in the supernatants were measured by VEGF DuoSet ELISA (R&D Systems, DY493, USA), following the manufacturer's instructions. […] VEGFA levels in the supernatants were measured by mouse or human VEGF DuoSet ELISA (R&D Systems, DY493 or DY293B, USA), following the manufacturer's instructions.

mouse BMDMs = test: VEGFA release in mouse BMDMs (ELISA); type: cell-based; conditions: FTOi 20 uM 12 hours, with or without LPS 250 ng/ml 6 hours, supernatant ELISA
Experimental: as §1
The RPE-choroid complex was isolated from mouse eyes on day 3 after laser injury and treatment with FTO inhibitor or vehicle. Eye tissues were lysed by sonication with immunoprecipitation assay (RIPA) buffer (Sigma-Aldrich, R0278, USA) containing protease inhibitor (Sigma-Aldrich, 11836170001, USA), on ice for 15 minutes. The lysate was centrifuged at 20,000×g for 15 minutes at 4° C., and total protein in the lysates was quantified using the Thermo Scientific™ Pierce™ BCA™ Protein Assay (Fisher Scientific, PI23225, USA). VEGFA protein levels in the supernatants were measured by VEGF DuoSet ELISA (R&D Systems, DY493, USA), following the manufacturer's instructions. Mouse BMDMs or human THP-1 cells (5×10^5 cells per well) were plated into six-well plates in complete medium and allowed to adhere overnight. Cells were then incubated for 24 hours in the absence or presence of various doses of FTO inhibitor or METTL3 inhibitors (STM2457, Selleck Chemicals). […] The siRNAs (siFto: 5′-P.G.A.G.G.A.U.C.C.A.A.G.G.C.A.A.A.G.A.U.dT.dT 3′ (SEQ ID NO: 38); siCtrl: 5′-P.U.A.A.G.G.C.U.A.U.G.A.A.G.A.G.A.U.dT.dT 3′; SEQ ID NO: 39), were designed and synthesized by GE Healthcare Dharmacon, were transfected twice with BMDMs by using DharmaFECT 4 Transfection Reagent (Dharmacon, T-2004, USA). VEGFA levels in the supernatants were measured by mouse or human VEGF DuoSet ELISA (R&D Systems, DY493 or DY293B, USA), following the manufacturer's instructions.

Cc1noc(C)c1-c1cc(Cl)c(Nc2ccccc2C(=O)NO)c(Cl)c1 [FB23-2]
In vivo retinal toxicity (In vivo retinal toxicity): did not observe in vivo retinal toxicity | VEGFA protein levels in laser treated RPE-choroid tissue (Wild type C57BL/6J mice [1]): inhibits VEGFA release in vivo | VEGFA protein levels in laser treated RPE-choroid tissue (Wild type C57BL/6J mice [1]; listed as selective inhibitor): suppressed VEGFA protein levels | Survival (mice death) (Wild type C57BL/6J mice [2]): rescues the mice death | VEGFA release (Human THP-1 cells): inhibits VEGFA release | VEGFA release (mouse BMDMs): inhibits VEGFA release | VEGFA release (mouse BMDMs; listed as FTO inhibitor): reduction in mouse VEGFA release
